In patent US20050053680A1, “Pediculicidal compound” (priority 2002, published 2005):
Read-outs that look alike come from different tables or passages of the source.

How the values were obtained:
[1] = system: Human lice, Pediculus humanus; conditions: in vivo
Louse eggs = conditions: for inhibition of embryo development before eyespot stage (in words): Table 10, Undeveloped; for Number of eggs Half-hatched / Number of eggs Undeveloped: Laurex CS 4.00%, GMS N/SE 2.00%; for Undeveloped % (in brackets, Abbott's correction): corrected; for Undeveloped %: uncorrected; for activity against louse eggs (in words): after correction for hatching failure in the Control Group
[2] = Table 10, H2O vehicle, Laurex CS 4.00% (163 eggs), GMS N/SE 2.00% (176 eggs)
[3] = Table 10, IPA/water vehicle, Laurex CS 4.00% (102 eggs), GMS N/SE 2.00% (145 eggs)
[4] = Table 10, IPA/water vehicle, IPA/H2O mix 40.5

`CCCCCCCCCCCCCCCC[N+](C)(C)C.[Cl-]` [Dehyquart ACA, Cetrimonium chloride] was tested, and the “Mortality % (Killed)” value [1] was 20 (10) %, the “Mortality % Total” value [1] was 20 (10) % and the Number of eggs [1] was 34. The “Number of lice Killed” value [1] was 2 and the “Number of lice Moribund” value [1] was 2.
For `CCCCCCCCCCCCCCCCCC(=O)OCC(O)CO` (stereo not drawn) [GMS N/SE, Glyceryl stearate], the “inhibition of embryo development before eyespot stage (in words)” value (Louse eggs) was “activity to inhibit the development of the embryo”, the “Number of eggs Hatched” value (Louse eggs; [2]) was 135 and the “Number of eggs Half-hatched” value (Louse eggs; Table 10, H2O vehicle) was 7. The “Number of eggs Undeveloped” value (Louse eggs; Table 10, H2O vehicle) was 27, the “Undeveloped % (in brackets, Abbott's correction)” value (Louse eggs; Table 10, H2O vehicle) was 0% and the Undeveloped % (Louse eggs; Table 10, H2O vehicle) was 15.3%. For the same compound, the “Number of eggs Hatched” value (Louse eggs; [3]) was 45, the “Number of eggs Half-hatched” value (Louse eggs; Table 10, IPA/water vehicle) was 1 and the “Number of eggs Undeveloped” value (Louse eggs; Table 10, IPA/water vehicle) was 93. The “Undeveloped % (in brackets, Abbott's correction)” value (Louse eggs; Table 10, IPA/water vehicle) was 39.7%, the Undeveloped % (Louse eggs; [4]) was 64.1% and the “activity against louse eggs (in words)” value (Louse eggs; Table 10) was “activity could be detected”. The “Number of lice Moribund” value [1] was 0 and the “pediculicidal activity (in words)” value [1] was “showed any activity”.
With `CCCCCCCCCCCCCCCCCCO` [Laurex CS, Cetearyl alcohol] the “inhibition of embryo development before eyespot stage (in words)” value (Louse eggs) was “activity to inhibit the development of the embryo”, the “Number of eggs Hatched” value (Louse eggs; [2]) was 117 and the “Number of eggs Half-hatched” value (Louse eggs; Table 10, H2O vehicle) was 1. The “Number of eggs Undeveloped” value (Louse eggs; Table 10, H2O vehicle) was 34, the “Undeveloped % (in brackets, Abbott's correction)” value (Louse eggs; Table 10, H2O vehicle) was 0% and the Undeveloped % (Louse eggs; Table 10, H2O vehicle) was 20.9%. The “Number of eggs Hatched” value (Louse eggs; [3]) was 19, the “Number of eggs Half-hatched” value (Louse eggs; Table 10, IPA/water vehicle) was 1 and the “Number of eggs Undeveloped” value (Louse eggs; Table 10, IPA/water vehicle) was 70. For the same compound, the “Undeveloped % (in brackets, Abbott's correction)” value (Louse eggs; Table 10, IPA/water vehicle) was 47.2%, the Undeveloped % (Louse eggs; [4]) was 68.6% and the “kill of louse eggs” value (Louse eggs; after correction for Control Group, Table 10) was greater than 50%. For the same compound, the “activity against louse eggs (in words)” value (Louse eggs; Table 10) was “activity could be detected”, the “pediculicidal activity (in words)” value [1] was “killed all lice and prevented them from laying any eggs” and the “pediculicidal activity at different time exposures (in words)” value [1] was “some activity can be demonstrated from 30 minutes application”.
Liquid Paraffin [reference compound] was tested, and the “Mortality % (Killed)” value [1] was 100 (100) % and the “Mortality % Total” value [1] was 100 (100) %.
In the case of “Methylparaben & Propylparaben & Ethylparaben [Nipasept]”, the “Mortality % (Killed)” value [1] is reported as 20 (15) % and the “Mortality % Total” value [1] is reported as 20 (15) %.
“Thymus Vulgaris (Thyme) extract [Thyme Extract]” was tested, and the “Mortality % (Killed)” value [1] was 21 (5) % and the “Mortality % Total” value [1] was 21 (5) %.
With “Urtica Dioica (Nettle) extract [Nettle Extract]” the “Mortality % (Killed)” value [1] was 24 (14) % and the “Mortality % Total” value [1] was 24 (14) %.
